Assay results: US9949479B2 (priority 2015, dated 2018)
Where “and” joins values, the source holds several entries; their conditions need not be identical. Identical values can stand only once. Like-named read-outs stand apart in the source and are kept apart here.

Assays:
leaf blight [1] = format: in vivo
rust [2] = format: in vivo; conditions: dose as in E145
leaf blight [3] = format: in vivo; conditions: Serial 6: preparation 100 g/mu; jinggangmycin 0, metconazole 20 g ai./mu
rust [4] = format: in vivo; conditions: dose as in E154
wheat scab [5] = format: in vivo, Fusarium spp.; conditions: Serial 6: preparation 100 g/mu; jinggangmycin 0, metconazole 20 g ai./mu
powdery mildew [6] = format: in vivo; conditions: dose as in E145
[7] = format: in vivo, wheat
powdery mildew [8] = format: in vivo
rust [9] = format: in vivo
leaf blight [10] = format: in vivo; remark: listed apart in the source
[11] = format: in vivo, wheat; remark: listed apart in the source
powdery mildew [12] = format: in vivo; remark: listed apart in the source
powdery mildew [13] = format: in vivo; conditions: Serial 6: preparation 100 g/mu; jinggangmycin 0, metconazole 20 g ai./mu
[14] = set-up: species or system wheat; conditions: in vivo
[15] = format: in vivo, barley; conditions: dose as in E154
rust [16] = format: in vivo; remark: listed apart in the source
wheat scab [17] = format: in vivo, Fusarium spp.; conditions: Serial 6: preparation 100; jinggangmycin 0, metconazole 20 g ai./mu
leaf blight [18] = format: in vivo; remark: listed apart in the source
[19] = set-up: species or system wheat; conditions: in vivo; remark: listed apart in the source
wheat scab [20] = format: in vivo, Fusarium spp.
rust [21] = format: in vivo; conditions: Serial 6: preparation 100 g/mu; jinggangmycin 0, metconazole 20 g ai./mu
leaf rust fungus = format: in vivo; conditions: seed treatment; dose as in E133
wheat scab [22] = format: in vivo, Fusarium spp.; remark: listed apart in the source
leaf blight [23] = format: in vivo; conditions: dose as in E154
[24] = format: in vivo, wheat; conditions: dose as in E162
leaf blight [25] = format: in vivo; conditions: Serial 6: preparation 100; jinggangmycin 0, metconazole 20 g ai./mu
powdery mildew [26] = format: in vivo; remark: listed apart in the source
wheat scab [27] = format: in vivo, Fusarium spp.; remark: listed apart in the source
wheat scab [28] = format: in vivo, Fusarium spp.; remark: listed apart in the source
powdery mildew [29] = format: in vivo; remark: listed apart in the source
[30] = Serial 21: metconazole 20 g ai./mu alone
[31] = Serial 22: metconazole 18 g ai./mu alone
[32] = Serial 23: metconazole 16 g ai./mu alone
[33] = Serial 24: metconazole 10 g ai./mu alone
[34] = Serial 25: metconazole 9 g ai./mu alone
[35] = Serial 26: metconazole 8 g ai./mu alone
[36] = Serial 27: metconazole 6 g ai./mu alone
[37] = Serial 28: metconazole 3 g ai./mu alone
[38] = Serial 9: preparation 100 g/mu, metconazole 20 g ai./mu alone
[39] = Serial 10: preparation 80 g/mu, metconazole 16 g ai./mu alone
[40] = Serial 11: preparation 40 g/mu, metconazole 8 g ai./mu alone
[41] = Serial 12: preparation 20 g/mu, metconazole 4 g ai./mu alone
[42] = Serial 8: preparation 50 g/mu, metconazole 10 g ai./mu alone
[43] = Serial 9: preparation 37.5 g/mu, metconazole 7.5 g ai./mu alone
[44] = Serial 10: preparation 15 g/mu, metconazole 3 g ai./mu alone
[45] = Serial 10: preparation 30 g/mu, metconazole 6 g ai./mu alone
[46] = Serial 11: preparation 22.5 g/mu, metconazole 4.5 g ai./mu alone
[47] = Serial 12: preparation 15 g/mu, metconazole 3 g ai./mu alone

CC1(C)CCC(Cc2ccc(Cl)cc2)C1(O)Cn1cncn1 (stereo not shown) [Metconazole]
Disease Index Prevention Effect % Leaf Blight (leaf blight [1]; [30]): 80.5% | Disease Index Prevention Effect % Leaf Blight (leaf blight [1]; [31]): 80.2% | Disease Index Prevention Effect % Leaf Blight (leaf blight [1]; [32]): 79.6% | Disease Index Prevention Effect % Leaf Blight (leaf blight [1]; [33]): 75.3% | Disease Index Prevention Effect % Leaf Blight (leaf blight [1]; [34]): 75.0% | Disease Index Prevention Effect % Leaf Blight (leaf blight [1]; [35]): 74.3% | Disease Index Prevention Effect % Leaf Blight (leaf blight [1]; [36]): 70.2% | Disease Index Prevention Effect % Leaf Blight (leaf blight [1]; [37]): 28.1% | Disease Index Prevention Effect % Rust (rust [2]): 83.8% and 78.4% and 66.7% and 41.9% | Disease Index Prevention Effect % Leaf Blight (leaf blight [3]): 84.6% | Disease Index Prevention Effect % Rust (rust [4]): 63.0% and 68.2% and 76.1% and 88.2% | Disease Index Prevention Effect % Head Blight (wheat scab [5]): 83.4% | Disease Index Prevention Effect % Powdery Mildew (powdery mildew [6]): 78.7% and 74.3% and 70.2% and 48.6% | Grain Toxin Content (mg of DON/Kg of grain) [7, 30]: 1.11 mg of DON/Kg of grain | Rate of Decrease in Toxin Content in Grains (%) [7, 30]: 82.8% | Grain Toxin Content (mg of DON/Kg of grain) [7, 31]: 0.99 mg of DON/Kg of grain | Rate of Decrease in Toxin Content in Grains (%) [7, 31]: 84.7% | Grain Toxin Content (mg of DON/Kg of grain) [7, 32]: 1.08 mg of DON/Kg of grain | Rate of Decrease in Toxin Content in Grains (%) [7, 32]: 83.3% | Grain Toxin Content (mg of DON/Kg of grain) [7, 33]: 1.34 mg of DON/Kg of grain | Rate of Decrease in Toxin Content in Grains (%) [7, 33]: 79.3% | Grain Toxin Content (mg of DON/Kg of grain) [7, 34]: 1.56 mg of DON/Kg of grain | Rate of Decrease in Toxin Content in Grains (%) [7, 34]: 75.9% | Grain Toxin Content (mg of DON/Kg of grain) [7, 35]: 1.61 mg of DON/Kg of grain | Rate of Decrease in Toxin Content in Grains (%) [7, 35]: 75.1% | Grain Toxin Content (mg of DON/Kg of grain) [7, 36]: 1.89 mg of DON/Kg of grain | Rate of Decrease in Toxin Content in Grains (%) [7, 36]: 70.7% | Grain Toxin Content (mg of DON/Kg of grain) [7, 37]: 3.22 mg of DON/Kg of grain | Rate of Decrease in Toxin Content in Grains (%) [7, 37]: 50.2% | Disease Index Prevention Effect % Powdery Mildew (powdery mildew [8]; [38]): 83.2% | Disease Index Prevention Effect % Powdery Mildew (powdery mildew [8]; [39]): 75.4% | Disease Index Prevention Effect % Powdery Mildew (powdery mildew [8]; [40]): 69.2% | Disease Index Prevention Effect % Powdery Mildew (powdery mildew [8]; [41]): 60.6% | Disease Index Prevention Effect % Rust (rust [9]; [42]): 84.4% | Disease Index Prevention Effect % Rust (rust [9]; [43]): 77.3% | Disease Index Prevention Effect % Rust (rust [9]; [44]): 70.6% | Disease Index Prevention Effect % Leaf Blight (leaf blight [10]; [42]): 72.8% | Disease Index Prevention Effect % Leaf Blight (leaf blight [10]; [43]): 70.6% | Disease Index Prevention Effect % Leaf Blight (leaf blight [10]; [44]): 68.3% | Grain Toxin Content mg of DON/kg of grain [11, 43]: 2.01 mg of DON/kg of grain | Toxin Reduction Percentage % [11, 43]: 55.5% | Grain Toxin Content mg of DON/kg of grain [11, 45]: 2.17 mg of DON/kg of grain | Toxin Reduction Percentage % [11, 45]: 52.0% | Grain Toxin Content mg of DON/kg of grain [11, 46]: 2.06 mg of DON/kg of grain | Toxin Reduction Percentage % [11, 46]: 54.4% | Grain Toxin Content mg of DON/kg of grain [11, 47]: 3.12 mg of DON/kg of grain | Toxin Reduction Percentage % [11, 47]: 31.0% | Disease Index Prevention Effect % Powdery Mildew (powdery mildew [12]; [45]): 60.6% | Disease Index Prevention Effect % Powdery Mildew (powdery mildew [12]; [46]): 58.6% | Disease Index Prevention Effect % Powdery Mildew (powdery mildew [12]; [47]): 45.1% | Disease Index Prevention Effect % Powdery Mildew (powdery mildew [13]): 98.2% | Thousand Kernel Weight [14]: 42.8 g and 41.8 g and 42.0 g and 39.2 g | Grain Toxin Content [15]: 3.86 mg of DON/Kg of grain and 3.70 mg of DON/Kg of grain and 3.09 mg of DON/Kg of grain and 3.26 mg of DON/Kg of grain | Toxin Reduction Percentage % ([15]; vs control): 54.7% and 56.6% and 63.8% and 61.8% | Disease Index Prevention Effect % Rust (rust [16]; [30]): 91.2% | Disease Index Prevention Effect % Rust (rust [16]; [31]): 88.4% | Disease Index Prevention Effect % Rust (rust [16]; [32]): 85.6% | Disease Index Prevention Effect % Rust (rust [16]; [33]): 82.1% | Disease Index Prevention Effect % Rust (rust [16]; [34]): 82.4% | Disease Index Prevention Effect % Rust (rust [16]; [35]): 79.4% | Disease Index Prevention Effect % Rust (rust [16]; [36]): 72.6% | Disease Index Prevention Effect % Rust (rust [16]; [37]): 30.2% | Disease Index Prevention Effect % Head Blight (wheat scab [17]): 82.4% | Disease Index Prevention Effect % Leaf Blight (leaf blight [18]; [38]): 72.8% | Disease Index Prevention Effect % Leaf Blight (leaf blight [18]; [39]): 70.6% | Disease Index Prevention Effect % Leaf Blight (leaf blight [18]; [40]): 68.3% | Disease Index Prevention Effect % Leaf Blight (leaf blight [18]; [41]): 50.8% | Thousand Kernel Weight [19]: 43.2 g and 42.6 g and 39.8 g | Disease Index Prevention Effect % Head Blight (wheat scab [20]; [30]): 75.1% | Disease Index Prevention Effect % Head Blight (wheat scab [20]; [31]): 74.9% | Disease Index Prevention Effect % Head Blight (wheat scab [20]; [32]): 73.2% | Disease Index Prevention Effect % Head Blight (wheat scab [20]; [33]): 70.1% | Disease Index Prevention Effect % Head Blight (wheat scab [20]; [34]): 67.2% | Disease Index Prevention Effect % Head Blight (wheat scab [20]; [35]): 65.1% | Disease Index Prevention Effect % Head Blight (wheat scab [20]; [36]): 54.8% | Disease Index Prevention Effect % Head Blight (wheat scab [20]; [37]): 28.3% | Disease Index Prevention Effect % Rust (rust [21]): 100% | Incidence Prevention Effect % Rust (leaf rust fungus): 85.5% and 82.0% and 71.0% and 54.5% | Disease Index Prevention Effect % Head Blight (wheat scab [22]; [38]): 78.2% | Disease Index Prevention Effect % Head Blight (wheat scab [22]; [39]): 71.2% | Disease Index Prevention Effect % Head Blight (wheat scab [22]; [40]): 67.1% | Disease Index Prevention Effect % Head Blight (wheat scab [22]; [41]): 52.0% | Disease Index Prevention Effect % Leaf Blight (leaf blight [23]): 56.2% and 70.4% and 73.7% and 80.0% | Grain Toxin Content [24]: 2.01 μg/g of kernels and 2.24 μg/g of kernels and 2.38 μg/g of kernels and 2.94 μg/g of kernels | Disease Index Prevention Effect % Leaf Blight (leaf blight [25]): 80.6% | Disease Index Prevention Effect % Powdery Mildew (powdery mildew [26]; [30]): 80.1% | Disease Index Prevention Effect % Powdery Mildew (powdery mildew [26]; [31]): 74.6% | Disease Index Prevention Effect % Powdery Mildew (powdery mildew [26]; [32]): 71.4% | Disease Index Prevention Effect % Powdery Mildew (powdery mildew [26]; [33]): 63.4% | Disease Index Prevention Effect % Powdery Mildew (powdery mildew [26]; [34]): 60.8% | Disease Index Prevention Effect % Powdery Mildew (powdery mildew [26]; [35]): 58.6% | Disease Index Prevention Effect % Powdery Mildew (powdery mildew [26]; [36]): 51.8% | Disease Index Prevention Effect % Powdery Mildew (powdery mildew [26]; [37]): 26.4% | Disease Index Prevention Effect % Head Blight (wheat scab [27]; [42]): 75.6% | Disease Index Prevention Effect % Head Blight (wheat scab [27]; [44]): 39.1% | Disease Index Prevention Effect % Head Blight (wheat scab [28]; [45]): 52.3% | Disease Index Prevention Effect % Head Blight (wheat scab [28]; [46]): 49.6% | Disease Index Prevention Effect % Head Blight (wheat scab [28]; [47]): 28.6% | Disease Index Prevention Effect % Powdery Mildew (powdery mildew [29]; [42]): 83.2% | Disease Index Prevention Effect % Powdery Mildew (powdery mildew [29]; [44]): 69.2%
